DBAASP
Values after ≈ are worked out from the molar mass of the structure shown.

Assays:
Assay in all cases: ≥ marks a high value that may be exact or a test limit, other limits are often not marked, values filed in µg/mL are converted to µM
[1] = system: Klebsiella pneumoniae ATCC 700603
[2] = system: Klebsiella pneumoniae ATCC BAA-2146
[3] = system: Candida albicans ATCC 90028
[4] = system: Klebsiella pneumoniae
[5] = system: Acinetobacter baumannii
[6] = system: Staphylococcus aureus ATCC 43300
[7] = system: Cryptococcus neoformans ATCC 208821
[8] = system: Pseudomonas aeruginosa
[9] = system: Pseudomonas aeruginosa ATCC 27853
[10] = system: Acinetobacter baumannii ATCC 19606
[11] = system: Escherichia coli ATCC 25922
[12] = system: Bacillus subtilis ATCC 6051
[13] = system: Klebsiella pneumoniae ATCC 13883
[14] = system: Escherichia coli K99
[15] = system: Escherichia coli K88
[16] = system: Pseudomonas aeruginosa CICC 21625
[17] = system: Salmonella enterica subsp. enterica serovar Typhimurium ATCC 14028
[18] = system: Salmonella enterica subsp. enterica serovar Pullorum C79-13
[19] = system: Pseudomonas aeruginosa PAO1
[20] = system: Salmonella enterica subsp. enterica serovar Typhimurium C77-31
[21] = system: Escherichia coli UB1005
[22] = system: Pseudomonas aeruginosa CICC 21630
[23] = system: Escherichia coli

Row | Compound | MIC [1] [µM] | MIC [2] [µM] | MIC [3] [µM] | MIC [4] [µM] | MIC [5] [µM] | MIC [6] [µM] | MIC [7] [µM] | MIC [8] [µM] | MIC [9] [µM] | MIC [10] [µM] | MIC [11] [µM] | MIC [12] [µM] | MIC [13] [µM] | MIC [14] [µM] | MIC [15] [µM] | MIC [16] [µM] | MIC [17] [µM] | MIC [18] [µM] | MIC [19] [µM] | MIC [20] [µM] | further results
1 | CC(C)[C@@H]1NC(=O)[C@H](CCCN=C(N)N)NC(=O)[C@H](C)NC(=O)[C@@H](NC(=O)[C@H](Cc2c[nH]c3ccccc23)NC(=O)[C@@H](N)CCCCN)CSSC[C@@H](C(=O)N[C@@H](CCCN=C(N)N)C(=O)O)NC(=O)[C@H](CCCN=C(N)N)NC(=O)[C@H](CCCN=C(N)N)NC(=O)[C@H](Cc2ccc(O)cc2)NC(=O)[C@@H]2CSSC[C@H](NC1=O)C(=O)N[C@@H](C)C(=O)N[C@@H](CCCN=C(N)N)C(=O)NCC(=O)N[C@@H](C)C(=O)N2 [KWCARVCARGACYRRCR] | > 7.77 | 7.77 (≈ 16 µg/mL) | 7.77 (≈ 16 µg/mL) | > 7.77 | 7.77 (≈ 16 µg/mL) | > 7.77 | 7.77 (≈ 16 µg/mL) | > 7.77 | > 7.77 | > 7.77 | 3.89 (≈ 7.98 µg/mL) | 7.77 (≈ 16 µg/mL) | 7.77 (≈ 16 µg/mL) |  |  |  |  |  |  |  | 
2 | CC[C@H](C)[C@@H]1NC(=O)CNC(=O)[C@H](CCCN=C(N)N)NC(=O)[C@H](Cc2ccc(O)cc2)NC(=O)[C@@H]2CSSC[C@H](NC1=O)C(=O)N[C@@H](Cc1ccc(O)cc1)C(=O)N[C@@H](CCCN=C(N)N)C(=O)N[C@@H](CCCN=C(N)N)C(=O)N[C@H](C(=O)N[C@@H](CCCN=C(N)N)C(=O)O)CSSC[C@H](NC(=O)[C@H](Cc1c[nH]c3ccccc13)NC(=O)[C@@H](N)CCCCN)C(=O)NCC(=O)N[C@@H](CCCN=C(N)N)C(=O)N[C@@H](C(C)C)C(=O)N2 [KWCGRVCYRGICYRRCR] | 0.459 (≈ 0.998 µg/mL) | 0.918 (≈ 2 µg/mL) | 3.67 (≈ 7.99 µg/mL) | > 7.34 | 0.918 (≈ 2 µg/mL) | 7.34 (≈ 16 µg/mL) | 0.918 (≈ 2 µg/mL) | 7.34 (≈ 16 µg/mL) | 0.459 (≈ 0.998 µg/mL) | 0.23 (≈ 0.499 µg/mL) | 0.115 (≈ 0.25 µg/mL) | 0.23 (≈ 0.499 µg/mL) | 0.918 (≈ 2 µg/mL) |  |  |  |  |  |  |  | 
3 | CC[C@H](C)[C@H](N)C(=O)N[C@@H](CCCCN)C(=O)N1CCC[C@H]1C(=O)N[C@H](C(=O)N[C@H](C(=O)N[C@@H](CCCCN)C(=O)N1CCC[C@H]1C(=O)N[C@H](C(=O)N[C@H](C(=O)N[C@@H](CCCCN)C(=O)N1CCC[C@H]1C(=O)N[C@H](C(=O)N[C@H](C(=O)N[C@@H](CCCCN)C(=O)N1CCC[C@H]1C(=O)N[C@H](C(=O)N[C@H](C(=O)N[C@@H](CCCCN)C(=O)N1CCC[C@H]1C(=O)N[C@H](C(N)=O)[C@@H](C)CC)[C@@H](C)CC)[C@@H](C)CC)[C@@H](C)CC)[C@@H](C)CC)[C@@H](C)CC)[C@@H](C)CC)[C@@H](C)CC)[C@@H](C)CC [IKPIIKPIIKPIIKPIIKPI] |  |  |  | > 64 | ≥ 64 |  |  | > 64 | > 64 |  | > 64 |  |  | ≥ 64 | ≥ 64 | ≥ 64 | > 64 | ≥ 64 | > 64 | ≥ 64 | MIC [21]: ≥ 64 µM; MIC [22]: ≥ 64 µM; MIC [23]: > 64 µM
4 | CC[C@H](C)[C@@H]1NC(=O)CNC(=O)[C@H](CCCN=C(N)N)NC(=O)[C@H](Cc2ccc(O)cc2)NC(=O)[C@@H]2CSSC[C@H](NC1=O)C(=O)N[C@@H](Cc1ccc(O)cc1)C(=O)N[C@@H](CCCN=C(N)N)C(=O)N[C@@H](CCCN=C(N)N)C(=O)N[C@H](C(=O)N[C@@H](CCCN=C(N)N)C(=O)O)CSSC[C@H](NC(=O)[C@H](C)NC(=O)[C@@H](N)CCCCN)C(=O)N[C@@H](Cc1ccccc1)C(=O)N[C@@H](CCCN=C(N)N)C(=O)N[C@@H](C(C)C)C(=O)N2 [KACFRVCYRGICYRRCR] | 0.464 (≈ 0.998 µg/mL) | 0.464 (≈ 0.998 µg/mL) | 3.71 (≈ 7.99 µg/mL) | > 7.43 | 0.232 (≈ 0.499 µg/mL) | 3.71 (≈ 7.99 µg/mL) | 0.232 (≈ 0.499 µg/mL) | 1.86 (≈ 3.99 µg/mL) | 0.232 (≈ 0.499 µg/mL) | 0.232 (≈ 0.499 µg/mL) | 0.116 (≈ 0.25 µg/mL) | 0.232 (≈ 0.499 µg/mL) | 0.232 (≈ 0.499 µg/mL) |  |  |  |  |  |  |  | 

Further lines, with some results ahead:

Row | MIC [1] [µM] | MIC [2] [µM] | MIC [3] [µM] | MIC [4] [µM] | MIC [5] [µM] | MIC [6] [µM] | MIC [7] [µM] | MIC [8] [µM] | MIC [9] [µM] | MIC [10] [µM] | MIC [11] [µM] | MIC [12] [µM] | MIC [13] [µM] | MIC [14] [µM] | MIC [15] [µM] | MIC [16] [µM] | MIC [17] [µM] | MIC [18] [µM] | MIC [19] [µM] | MIC [20] [µM] | Compound | further results
5 | 0.228 (≈ 0.499 µg/mL) | 0.228 (≈ 0.499 µg/mL) | 3.65 (≈ 7.99 µg/mL) | 7.3 (≈ 16 µg/mL) | 0.228 (≈ 0.499 µg/mL) | 1.82 (≈ 3.99 µg/mL) | 0.228 (≈ 0.499 µg/mL) | 0.912 (≈ 2 µg/mL) | 0.228 (≈ 0.499 µg/mL) | 0.228 (≈ 0.499 µg/mL) | 0.057 (≈ 0.125 µg/mL) | 0.114 (≈ 0.25 µg/mL) | 0.228 (≈ 0.499 µg/mL) |  |  |  |  |  |  |  | CC[C@H](C)[C@@H]1NC(=O)CNC(=O)[C@H](CCCN=C(N)N)NC(=O)[C@H](Cc2ccc(O)cc2)NC(=O)[C@@H]2CSSC[C@H](NC1=O)C(=O)N[C@@H](Cc1ccc(O)cc1)C(=O)N[C@@H](CCCN=C(N)N)C(=O)N[C@@H](CCCN=C(N)N)C(=O)N[C@H](C(=O)N[C@@H](CCCN=C(N)N)C(=O)O)CSSC[C@H](NC(=O)[C@H](Cc1c[nH]c3ccccc13)NC(=O)[C@@H](N)CCCCN)C(=O)N[C@@H](C)C(=O)N[C@@H](CCCN=C(N)N)C(=O)N[C@@H](C(C)C)C(=O)N2 [KWCARVCYRGICYRRCR] | 
6 |  |  |  | 8 (≈ 19.3 µg/mL) | 4 (≈ 9.66 µg/mL) |  |  | > 64 | 32 (≈ 77.3 µg/mL) |  | 8 (≈ 19.3 µg/mL) |  |  | 4 (≈ 9.66 µg/mL) | 1 (≈ 2.42 µg/mL) | ≥ 64 | 8 (≈ 19.3 µg/mL) | 8 (≈ 19.3 µg/mL) | 64 (≈ 155 µg/mL) | 16 (≈ 38.6 µg/mL) | CC[C@H](C)[C@H](N)C(=O)N[C@@H](CCCN=C(N)N)C(=O)N1CCC[C@H]1C(=O)N[C@H](C(=O)N[C@H](C(=O)N[C@@H](CCCN=C(N)N)C(=O)N1CCC[C@H]1C(=O)N[C@H](C(=O)N[C@H](C(=O)N[C@@H](CCCN=C(N)N)C(=O)N1CCC[C@H]1C(=O)N[C@H](C(=O)N[C@H](C(=O)N[C@@H](CCCN=C(N)N)C(=O)N1CCC[C@H]1C(=O)N[C@H](C(=O)N[C@H](C(=O)N[C@@H](CCCN=C(N)N)C(=O)N1CCC[C@H]1C(=O)N[C@H](C(N)=O)[C@@H](C)CC)[C@@H](C)CC)[C@@H](C)CC)[C@@H](C)CC)[C@@H](C)CC)[C@@H](C)CC)[C@@H](C)CC)[C@@H](C)CC)[C@@H](C)CC [IRPIIRPIIRPIIRPIIRPI] | MIC [21]: 4 µM (≈ 9.66 µg/mL); MIC [22]: ≥ 64 µM; MIC [23]: 8 µM (≈ 19.3 µg/mL)
7 |  |  |  | 1 (≈ 3.18 µg/mL) | 1 (≈ 3.18 µg/mL) |  |  | 5.66 (≈ 18 µg/mL) | 2 (≈ 6.36 µg/mL) |  | 0.5 (≈ 1.59 µg/mL) |  |  | 1 (≈ 3.18 µg/mL) | 0.5 (≈ 1.59 µg/mL) | 8 (≈ 25.4 µg/mL) | 1 (≈ 3.18 µg/mL) | 2 (≈ 6.36 µg/mL) | 1 (≈ 3.18 µg/mL) | 2 (≈ 6.36 µg/mL) | CC(C)C[C@H](NC(=O)[C@@H]1CCCN1C(=O)[C@H](CCCCN)NC(=O)[C@H](CC(C)C)NC(=O)[C@H](CC(C)C)NC(=O)[C@@H]1CCCN1C(=O)[C@H](CCCCN)NC(=O)[C@H](CC(C)C)NC(=O)[C@H](CC(C)C)NC(=O)[C@@H]1CCCN1C(=O)[C@H](CCCCN)NC(=O)[C@H](CC(C)C)NC(=O)[C@H](CC(C)C)NC(=O)[C@@H]1CCCN1C(=O)[C@H](CCCCN)NC(=O)[C@H](CC(C)C)NC(=O)[C@H](CC(C)C)NC(=O)[C@@H]1CCCN1C(=O)[C@H](CCCCN)NC(=O)[C@H](CC(C)C)NC(=O)[C@H](CC(C)C)NC(=O)[C@@H]1CCCN1C(=O)[C@H](CCCCN)NC(=O)[C@H](CC(C)C)NC(=O)[C@H](CC(C)C)NC(=O)[C@@H]1CCCN1C(=O)[C@H](CCCCN)NC(=O)[C@@H](N)CC(C)C)C(N)=O [LKPLLKPLLKPLLKPLLKPLLKPLLKPL] | MIC [21]: 1 µM (≈ 3.18 µg/mL); MIC [22]: 2 µM (≈ 6.36 µg/mL); MIC [23]: 2 µM (≈ 6.36 µg/mL)
8 |  |  |  | 8 (≈ 21.8 µg/mL) | 4 (≈ 10.9 µg/mL) |  |  | 45.3 (≈ 123 µg/mL) | 4 (≈ 10.9 µg/mL) |  | 1 (≈ 2.73 µg/mL) |  |  | 2 (≈ 5.45 µg/mL) | 1 (≈ 2.73 µg/mL) | ≥ 64 | 4 (≈ 10.9 µg/mL) | 4 (≈ 10.9 µg/mL) | 4 (≈ 10.9 µg/mL) | 8 (≈ 21.8 µg/mL) | CC(C)C[C@H](NC(=O)[C@@H]1CCCN1C(=O)[C@H](CCCCN)NC(=O)[C@H](CC(C)C)NC(=O)[C@H](CC(C)C)NC(=O)[C@@H]1CCCN1C(=O)[C@H](CCCCN)NC(=O)[C@H](CC(C)C)NC(=O)[C@H](CC(C)C)NC(=O)[C@@H]1CCCN1C(=O)[C@H](CCCCN)NC(=O)[C@H](CC(C)C)NC(=O)[C@H](CC(C)C)NC(=O)[C@@H]1CCCN1C(=O)[C@H](CCCCN)NC(=O)[C@H](CC(C)C)NC(=O)[C@H](CC(C)C)NC(=O)[C@@H]1CCCN1C(=O)[C@H](CCCCN)NC(=O)[C@H](CC(C)C)NC(=O)[C@H](CC(C)C)NC(=O)[C@@H]1CCCN1C(=O)[C@H](CCCCN)NC(=O)[C@@H](N)CC(C)C)C(N)=O [LKPLLKPLLKPLLKPLLKPLLKPL] | MIC [21]: 2 µM (≈ 5.45 µg/mL); MIC [22]: ≥ 32 µM; MIC [23]: 2 µM (≈ 5.45 µg/mL)
